Data from ChEMBL document CHEMBL1156251, “Structure--activity relationships of polymyxin antibiotics” (J Med Chem, 2010).
pIC50: −log10 of the molar value. ≈ marks a conversion by molar mass, not a printed value.

Assays:
[1] = test system: Escherichia coli; test: Antimicrobial activity against Escherichia coli K-12; assay type: functional
[2] = test system: Pseudomonas aeruginosa; test: Antimicrobial activity against Pseudomonas aeruginosa; assay type: functional, organism-based
[3] = test system: Escherichia coli; test: Antimicrobial activity against Escherichia coli; assay type: functional
[4] = test system: Salmonella enterica; test: Antimicrobial activity against Salmonella enterica; assay type: functional
[5] = molecular target: Lipopolysaccharide (LPS); test: Displacement of dansyl-PMB from LPS by isothermal titration calorimetry; conditions: read-out: IC50
[6] = test system: Escherichia coli; test: Antimicrobial activity against Escherichia coli assessed as relative sensitizing activity; assay type: functional

| MIC [1] [µg/mL] | pIC50 [5] | SMILES | Activity [6] [%] | other results |
| --- | --- | --- | --- | --- |
| – | 4.46 | CC(C)C[C@@H]1NC(=O)[C@@H](Cc2ccccc2)NC(=O)[C@H](CCCCN)NC(=O)CN(C(=O)[C@H](CCCCN)NC(=O)[C@@H](N)[C@@H](C)O)CCCCNC(=O)[C@@H]([C@H](C)O)NC(=O)[C@H](CCCCN)NC(=O)[C@H](CCCCN)NC1=O | 4 | – |
| – | 4.52 | CC(C)C[C@@H]1NC(=O)[C@@H](Cc2ccccc2)NC(=O)[C@H](CCCCN)NC(=O)[C@@H](NC(=O)[C@H](CCCCN)NC(=O)[C@@H](N)[C@@H](C)O)CCNC(=O)[C@H]([C@@H](C)O)NC(=O)[C@H](CCCCN)NC(=O)[C@H](CCCCN)NC1=O | 5 | – |
| – | 4.60 | CC(C)C[C@@H]1NC(=O)[C@@H](Cc2ccccc2)NC(=O)[C@H](CCCN)NC(=O)CN(C(=O)[C@H](CCCN)NC(=O)[C@@H](N)[C@@H](C)O)CCCNC(=O)[C@@H]([C@H](C)O)NC(=O)[C@H](CCCN)NC(=O)[C@H](CCCN)NC1=O | 2 | – |
| – | 4.82 | CC(C)C[C@@H]1NC(=O)[C@@H](Cc2ccccc2)NC(=O)[C@H](CCCCN)NC(=O)[C@@H](NC(=O)[C@H](CCCCN)NC(=O)[C@@H](N)[C@@H](C)O)CCNC(=O)[C@H]([C@@H](C)O)NC(=O)[C@H](CCN)NC(=O)[C@H](CCN)NC1=O | 4 | – |
| – | 4.85 | CC(C)C[C@@H]1NC(=O)[C@@H](Cc2ccccc2)NC(=O)[C@H](CCCCN)NC(=O)[C@@H](NC(=O)[C@H](CCCCN)NC(=O)[C@@H](N)[C@@H](C)O)CCNC(=O)[C@@H]([C@H](C)O)NC(=O)[C@H](CCN)NC(=O)[C@H](CCN)NC1=O | 9 | – |

Second part, the compound before the results:

| SMILES | MIC [1] [µg/mL] | pIC50 [5] | Activity [6] [%] | other results |
| --- | --- | --- | --- | --- |
| CCCCCCCCC(=O)N[C@H](C(=O)N[C@@H](CCN)C(=O)N[C@H]1CCNC(=O)[C@H]([C@@H](C)O)NC(=O)[C@H](CCN)NC(=O)[C@H](CCN)NC(=O)[C@H](CC(C)C)NC(=O)[C@@H](CC(C)C)NC(=O)[C@H](CCN)NC1=O)[C@@H](C)O | 12 (≈ 11.2 µM) | – | – | – |
| CCCCCCCCCCC(=O)N[C@H](C(=O)N[C@@H](CCN)C(=O)N[C@H]1CCNC(=O)[C@H]([C@@H](C)O)NC(=O)[C@H](CCN)NC(=O)[C@H](CCN)NC(=O)[C@H](CC(C)C)NC(=O)[C@@H](CC(C)C)NC(=O)[C@H](CCN)NC1=O)[C@@H](C)O | 3 (≈ 2.73 µM) | – | – | – |
| CCC(C)CCCCCC(=O)N[C@H](C(=O)N[C@@H](CCN)C(=O)N[C@H]1CCNC(=O)[C@H]([C@@H](C)O)NC(=O)[C@H](CCN)NC(=O)[C@H](CCN)NC(=O)[C@H](CC(C)C)NC(=O)[C@@H](CC(C)C)NC(=O)[C@H](CCN)NC1=O)[C@@H](C)O (some centres not stated) | 50 (≈ 46.2 µM) | – | – | – |
| CCCCCCCCCCCC(=O)N[C@H](C(=O)N[C@@H](CCN)C(=O)N[C@H]1CCNC(=O)[C@H]([C@@H](C)O)NC(=O)[C@H](CCN)NC(=O)[C@H](CCN)NC(=O)[C@H](CC(C)C)NC(=O)[C@@H](CC(C)C)NC(=O)[C@H](CCN)NC1=O)[C@@H](C)O | 3 (≈ 2.7 µM) | – | – | – |
| CCCCCCCCCC(=O)N[C@H](C(=O)N[C@@H](CCN)C(=O)N[C@H]1CCNC(=O)[C@H]([C@@H](C)O)NC(=O)[C@H](CCN)NC(=O)[C@H](CCN)NC(=O)[C@H](CC(C)C)NC(=O)[C@@H](CC(C)C)NC(=O)[C@H](CCN)NC1=O)[C@@H](C)O | 3 (≈ 2.77 µM) | – | – | – |
| CCCCCCCCCCCCCC(=O)N[C@H](C(=O)N[C@@H](CCN)C(=O)N[C@H]1CCNC(=O)[C@H]([C@@H](C)O)NC(=O)[C@H](CCN)NC(=O)[C@H](CCN)NC(=O)[C@H](CC(C)C)NC(=O)[C@@H](CC(C)C)NC(=O)[C@H](CCN)NC1=O)[C@@H](C)O | 12 (≈ 10.5 µM) | – | – | MIC [2]: 4 µM (≈ 4.56 µg/mL); MIC [3]: 4 µM (≈ 4.56 µg/mL); MIC [4]: 2 µM (≈ 2.28 µg/mL) |
| CCC(C)CCCCCCC(=O)N[C@H](C(=O)N[C@@H](CCN)C(=O)N[C@H]1CCNC(=O)[C@H]([C@@H](C)O)NC(=O)[C@H](CCN)NC(=O)[C@H](CCN)NC(=O)[C@H](CC(C)C)NC(=O)[C@@H](CC(C)C)NC(=O)[C@H](CCN)NC1=O)[C@@H](C)O (some centres not stated) | 25 (≈ 22.8 µM) | – | – | – |
| CC(C)C[C@@H]1NC(=O)[C@@H](Cc2ccccc2)NC(=O)[C@H](CN)NC(=O)[C@@H](NC(=O)[C@H](CN)NC(=O)[C@@H](N)[C@@H](C)O)CNC(=O)[C@H]([C@@H](C)O)NC(=O)[C@H](CN)NC(=O)[C@H](CN)NC1=O | – | 4.52 | 11 | – |
